# Residues, ends and D or L forms follow the SMILES beside them. *: point of attachment. Palmitoyl = CCCCCCCCCCCCCCCC(=O)*
# Settings: concentration about 10 mg/mL
# Protocol: The two molecules can be dissolved in pH-adjusted water at a concentration of about 2-30 mg/ml, and preferably about 10 mg/mL.
# The molecules were then dissolved in water at a concentration of 10 mg/mL, adjusting the pH to improve solubility. […] In the case of molecule 1, the pH was raised to about pH 8 with 2M and 100 mM KOH, then back-titrated to pH 7.
smiles,measurement,value
CCCCCCCCCCCCCCCC(=O)N[C@@H](C)C(=O)N[C@@H](C)C(=O)N[C@@H](C)C(=O)N[C@@H](C)C(=O)NCC(=O)NCC(=O)NCC(=O)N[C@@H](CCCCN)C(=O)N[C@@H](Cc1ccc(O)cc1)C(=O)N[C@H](C(=O)NCC(=O)N[C@@H](CO)C(=O)N[C@@H](CCCNC(=N)N)C(N)=O)[C@@H](C)CC [Molecule 2] (Palmitoyl-AAAAGGGKYIGSR-NH2),appearance of solution in pH-adjusted water,translucent
